Where two headings read alike, the source gives them in different places.
Columns and labels:
BRD4 BD2 = BRD4 BD2 (Homo sapiens (Human), UniProt O60885); assay: NanoBRET bromodomain assay, NanoLuc-BRD4-BD2 fusion in HEK293 cells; conditions: for IC50: BRD4 BD2 (IC50), NanoBRET, HEK293 cells, top concentration 10 μM; for Fold selectivity: IC50 for BRD4 BD1 divided by IC50 for BRD4 BD2, qualitative if an IC50 is at the upper limit;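 for all read-outs here: tracer displacement BRET read in transfected cells after 2 h compound exposure at 37 °C, signal in milliBRET units corrected against no-tracer background wells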
[1] = Plasma stability assay, rat plasma; format: in vitro ADME; conditions: Method 2 (10 μM)
Experimental: From stock solution of compound in 10 mM DMSO, a working solution of 1 mM is prepared by diluting the compound in DMSO. To 398 μL of plasma pre-warmed at 37° C. for 15 minutes), 2 μL of working solution of compound is added, resulting in a final concentration of 5 μM (0.5% DMSO) for the compound. The sample is then incubated at 37° C. Aliquot is withdrawn at specified time-points (0, 15, 30, 60 and 120 mins). The reaction is stopped by addition of 450 μL cold acetonitrile containing internal standard (IS). […] Aliquots of the supernatant is analysed using LC-MS/MS. The percent remaining of the compound at each time point is calculated with respect to the control sample (0 min time-point).
A working solution of compound (500 μM) is prepared in DMSO (100%). To 735 μL of plasma, 15 μL of working solution of compound is added—resulting in a final concentration of 10 μM (2% DMSO) for the compound. The sample is then incubated at 37° C. Aliquot is withdrawn at time-points—0, 15, 30, 60, 90 and 120 mins. The reaction is stopped by using chilled acetonitrile containing internal standard (IS). The samples are centrifuged and the supernatants analyzed using LC-MS/MS. The percent remaining of the compound at each time point is calculated with respect to the control sample (0 min time-point).

BRD4 BD1 = BRD4 BD1 (Homo sapiens (Human), UniProt O60885); assay: NanoBRET bromodomain assay, NanoLuc-BRD4-BD1 fusion in HEK293 cells; format: cell-based; conditions: top concentration 10 μM
Experimental: HEK293 cells were transfected using NanoLuc-BRD4-BD1 or NanoLuc-BRD4-BD2 fusion vectors and incubated at 37° C. in an atmosphere of 5% CO2 for 20-24 hours. The transfected cells were then dispensed into 96-well plates using 90 μl cell suspension per well containing 2×10^5 cells/mL in Opti-MEM and 1× final concentration of tracer. 90 μL per well of cell suspension without tracer was also dispensed into at least 3 wells as “No tracer control samples” for background correction. Serially diluted test compounds were prepared at 1000× concentration in DMSO and further diluted to 10× concentration in Opti-MEM. […] Plates were then incubated at 37° C. +5% 002 incubator for 2 hours. […] Donor emission (450 nm) and acceptor emission (610 nm) were measured using PHERAstar (BMG LabTech). For data analysis, the raw BRET ratio was generated and converted to milliBRET units with background correction using the formula: [(Acceptorsample/Donorsample−(Acceptorno tracer control/Donorno tracer control)]×1000. The mBU data was plotted as a function of compound concentration and IC50s for BRET assay were determined by nonlinear regression analysis of concentration response curves using the Collaborative Drug Discovery Vault software. The fold-selectivity was calculated by dividing the IC50 for BRD4 BD1 by the IC50 for BRD4 BD2.

[2] = Intrinsic clearance in liver microsomes, rat; format: in vitro ADME; conditions: rat, liver microsomes, pH 7.4, rat liver microsomes, read-out: Half-Life (T1/2) (min), Rat
Experimental: From stock solution of compound on 10 mM DMSO, a working solution of 0.1 mM is prepared by diluting the compound in DMSO. 6.25 μL of a 20 mg/mL solution of microsomes in PBS pH 7.4 buffer is added to 216.25 μL PBS pH 7.4 buffer (final microsome concentration—0.5 mg/mL). 25 μL of 10 mM solution of NADPH in PBS pH 7.4 buffer is added to the incubations (final NADPH concentration—1 mM). The mixture is pre-warmed to 37° C. for 10 minutes. 2.5 μL of test compound working solution is added (final compound concentration—1 μM with 1% DMSO). Aliquots of 30 μL are taken from the reaction solution at 0.5, 5, 15, 30 and 60 minutes. The reaction was stopped by the addition of 5 volumes of cold acetonitrile with IS (100 nM alprazolam, 200 nM caffeine and 100 nM tolbutamide). Samples were centrifuged at 3, 220 g for 40 minutes. Aliquots of 100 μL of the supernatant are mixed with 100 μL of ultra-pure H2O and used for LC-MS/MS analysis. The percent compound remaining at each time point is calculated with respect to that of the 0.5 min sample. The data are analysed to calculate half-life. Control experiments are run without NADPH and blank samples are prepared using DMSO without the test compound.
A 50 mM stock solution (in DMSO) is prepared for the compound. From the stock solution, a working solution of 0.5 mM is prepared by diluting the compound in DMSO. This concentration of working solution is prepared considering a final concentration of 1 uM with 0.1% DMSO. The compound (1 μL of working solution) is spiked in PBS with pH 7.4 ([…]) at a concentration of 1 μM. Subsequently, 110 μL of 10 mM NADPH is added (as a co-factor). The sample is incubated at 37° C. for 15 min. Following this, pre-warmed liver microsomes (27.5 μL; final protein conc. 0.5 mg/mL) are added. The samples are then incubated at 37° C. Aliquots of samples are withdrawn at 0, 5, 15, 30, 45 and 60 min. The reaction is stopped by using chilled acetonitrile containing internal standard. The samples are centrifuged, and the supernatants analysed by LC-MS/MS. The percent compound remaining at each time point is calculated with respect to that of the 0 min sample. The data are then analysed to calculate half-life and intrinsic clearance (CLint). Control experiments are run without NADPH and blank samples are prepared using DMSO without the test compound.

[3] = Sprague-Dawley rat pharmacokinetics, IV and PO cassette dosing; format: in vivo; conditions: Method 1; for IV T1/2: IV 1 mg/kg; for PO F: PO 5 mg/kg
Experimental: Compounds were formulated in 5% DMSO, 40% PEG-400, 55% Milli-Q water at a concentration of 0.2 mg/mL for IV and at 0.5 mg/mL for PO. Two male Sprague-Dawley rats per arm were dosed with up to 5 compounds in cassette mode, which each compound being dosed at 1 mg/kg IV and 5 mg/kg PO. Blood was sampled at various timepoints and plasma isolated. 50 μL of plasma with 5 μL of blank Sprague-Dawley rat plasma were added to 200 μL of acetonitrile containing IS mixture. The samples were vortexed for 30 s. After centrifugation at 4 degrees Celsius, 3900 rpm for 15 min, the supernatant was diluted 3 times with water. 20 μL of diluted supernatant was injected into the LC/MS/MS system for quantitative analysis and concentration of analyte determined by comparison with matrix matched standard curve. WinNonlin (Phoenix™, version 8.3) or other similar software may be used for pharmacokinetic calculations.

IC50 (BRD4 BD2) [nM]	Fold selectivity (BRD4 BD2)	Plasma Stability (% remaining at 120 minutes), Rat [1] [%]	IC50 (BRD4 BD1) [nM]	half-life at 1 μM ([2]; Method 1) [min]	IV T1/2 [3] [min]	PO F [3] [%]	half-life at 1 μM ([2]; Method 2) [min]	Structure (SMILES)
< 50	XXX (Fold >200)	47	≥ 10000	47	24	47		CNC(=O)c1[nH]c(C(=O)NC2CCC2)cc1OC(C)c1ccc(Cl)cc1 (single isomer, unassigned) [Example 27, 3-(1-(4-chlorophenyl)ethoxy)-N^5-cyclobutyl-N^2-methyl-1H-pyrrole-2,5-dicarboxamide]
< 50	XXX (Fold >200)	93	≥ 10000				> 60	CCNC(=O)c1cc(OC(C)c2ccc(I)cc2)c(C(=O)NC)[nH]1 (single isomer, unassigned) [Example 51, N^5-ethyl-3-(1-(4-iodophenyl)ethoxy)-N^2-methyl-1H-pyrrole-2,5-dicarboxamide]
	— (Fold ≥0 and ≤2)	88					> 60	CCNC(=O)c1cc(OC(C)c2c(F)cccc2F)c(C(=O)NC)[nH]1 (single isomer, unassigned) [Example 55, 3-(1-(2,6-difluorophenyl)ethoxy)-N^5-ethyl-N^2-methyl-1H-pyrrole-2,5-dicarboxamide]
< 50	XXX (Fold >200)	75	≥ 10000				23	CNC(=O)c1[nH]c(-c2ncc(C)[nH]2)cc1O[C@@H](C)c1ccccc1F [Example 68, (S)-3-(1-(2-fluorophenyl)ethoxy)-N-methyl-5-(5-methyl-1H-imidazol-2-yl)-1H-pyrrole-2-carboxamide]
< 50	XXX (Fold >200)	83	≥ 10000				21	CNC(=O)c1[nH]c(-c2ncc(C)[nH]2)cc1O[C@@H](C)c1ccc(Cl)cc1 [Example 69, (S)-3-(1-(4-chlorophenyl)ethoxy)-N-methyl-5-(5-methyl-1H-imidazol-2-yl)-1H-pyrrole-2-carboxamide]

Second part, the molecule before the results:

Structure (SMILES)	IC50 (BRD4 BD2) [nM]	Fold selectivity (BRD4 BD2)	Plasma Stability (% remaining at 120 minutes), Rat [1] [%]	IC50 (BRD4 BD1) [nM]	half-life at 1 μM ([2]; Method 1) [min]	IV T1/2 [3] [min]	PO F [3] [%]	half-life at 1 μM ([2]; Method 2) [min]
CNC(=O)c1[nH]c(C(=O)NC2COC2)cc1OC(C)c1ccc(Cl)cc1 (single isomer, unassigned) [Example 31, 3-(1-(4-chlorophenyl)ethoxy)-N^2-methyl-N^5-(oxetan-3-yl)-1H-pyrrole-2,5-dicarboxamide]		XX (Fold >50 and ≤200)	81		> 60	36	15	
CNC(=O)c1[nH]c(C(=O)NC2CCC2)cc1OC(C)c1ccc(Cl)cc1F (single isomer, unassigned) [Example 35, 3-(1-(4-chloro-2-fluorophenyl)ethoxy)-N^5-cyclobutyl-N^2-methyl-1H-pyrrole-2,5-dicarboxamide]	< 50	XXX (Fold >200)	67	≥ 10000	46	30	65	
CNC(=O)c1[nH]c(C(=O)N[C@H]2CC[C@H](O)CC2)cc1OC(C)c1ccccc1F (single isomer, unassigned) [Example 45]		XX (Fold >50 and ≤200)	88					> 60
CNC(=O)c1[nH]c(C(=O)NC2COC2)cc1OC(C)c1ccccc1F (single isomer, unassigned) [Example 47, 3-(1-(2-fluorophenyl)ethoxy)-N^2-methyl-N^5-(oxetan-3-yl)-1H-pyrrole-2,5-dicarboxamide]	50 to 200	XX (Fold >50 and ≤200)	76	≥ 10000				> 60
CCNC(=O)c1cc(OC(C)c2ccc(Br)cc2)c(C(=O)NC)[nH]1 (single isomer, unassigned) [Example 49, 3-(1-(4-bromophenyl)ethoxy)-N^5-ethyl-N^2-methyl-1H-pyrrole-2,5-dicarboxamide]	< 50	XXX (Fold >200)	90	≥ 10000				> 60
CCNC(=O)c1cc(OC(c2ccccc2)c2ccccc2)c(C(=O)NC)[nH]1 [Example 53, 3-(benzhydryloxy)-N^5-ethyl-N^2-methyl-1H-pyrrole-2,5-dicarboxamide]	50 to 200	XX (Fold >50 and ≤200)	91	≥ 10000				> 60
CNC(=O)c1[nH]c(C(=O)NCC(F)(F)F)cc1O[C@@H](C)c1ccccc1 [Example 54, (S)—N^2-methyl-3-(1-phenylethoxy)-N^5-(2,2,2-trifluoroethyl)-1H-pyrrole-2,5-dicarboxamide]	50 to 200	XX (Fold >50 and ≤200)	93	≥ 10000				> 60
CNC(=O)c1[nH]c(C(=O)NC(C)C)cc1O[C@@H](C)c1ccc(Cl)cc1 [Example 61, (S)-3-(1-(4-chlorophenyl)ethoxy)-N^5-isopropyl-N^2-methyl-1H-pyrrole-2,5-dicarboxamide]	50 to 200	XX (Fold >50 and ≤200)	81	≥ 10000				> 60
CCNC(=O)c1[nH]c(C(=O)NC)c(O[C@@H](C)c2ccccc2F)c1Br [Example 72, (S)-3-bromo-N^2-ethyl-4-(1-(2-fluorophenyl)ethoxy)-N^5-methyl-1H-pyrrole-2,5-dicarboxamide]	> 10000	— (Fold ≥0 and ≤2)	9					13

Source: patent publication US20250263370A1 (Tay Therapeutics Limited, priority 2022, published 2025)
